In patent US20120088791A1, “AMIDOBIPIPERIDINECARBOXYLATE M1 ALLOSTERIC AGONISTS, ANALOGS AND DERIVATIVES THEREOF, AND METHODS OF MAKING AND USING SAME” (VANDERBILT UNIVERSITY, priority 2009, published 2012) one finds EC50 and Emax data, which are given here for 5 molecules.

The assay deals with T1, rM1 (Rattus norvegicus, UniProt P08482).
T1 construct: host or cells: CHO-K1
T1 sequence (P08482 1-460): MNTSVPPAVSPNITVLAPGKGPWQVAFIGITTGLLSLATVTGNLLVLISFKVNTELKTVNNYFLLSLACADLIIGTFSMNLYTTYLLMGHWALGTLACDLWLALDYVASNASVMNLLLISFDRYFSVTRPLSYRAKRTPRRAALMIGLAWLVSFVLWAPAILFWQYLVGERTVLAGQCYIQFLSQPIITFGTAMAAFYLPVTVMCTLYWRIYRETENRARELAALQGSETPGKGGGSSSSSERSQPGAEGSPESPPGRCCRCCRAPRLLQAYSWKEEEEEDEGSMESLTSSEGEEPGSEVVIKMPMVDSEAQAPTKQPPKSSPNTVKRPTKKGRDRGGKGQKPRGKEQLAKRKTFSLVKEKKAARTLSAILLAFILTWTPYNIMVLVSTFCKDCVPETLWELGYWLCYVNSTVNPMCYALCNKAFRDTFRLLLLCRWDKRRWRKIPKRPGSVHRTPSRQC
Nature of the assay: Calcium mobilization assay, CHO-K1 cells stably expressing rM1. The conditions noted are these: for EC50: read-out: Potency (EC50). It is filed as cell-based. From the text: Cell culture and transfections. Chinese hamster ovary (CHO-K1) cells stably expressing rat (r)M1 were purchased from the American Type Culture Collection and cultured according to their indicated protocol. CHO cells stably expressing human (h)M2, hM3, and hM5 were used and described previously (Levey et al., 1991); rM4 cDNA, provided by T. I. Bonner (National Institutes of Health, Bethesda, Md.), was used to stably transfect CHO-K1 cells purchased from the American Type Culture Collection using Lipofectamine2000. To make stable hM2 and rM4 cell lines for use in calcium mobilization assays, these cells also were stably transfected with a chimeric G-protein (Gqi5) using Lipofectamine 2000. M1, hM3, and hM5 cells were grown in Ham's F-12 medium containing 10% heat-inactivated fetal bovine serum (FBS), 20 mM HEPES, and 50 μg/ml G418 sulfate. hM2-Gqi5 cells were grown in the same medium also containing 500 μg/ml Hygromycin B. Stable rM4-Gqi5 cells were grown in DMEM containing 10% heat-inactivated FBS, 20 mM HEPES, 400 μg/ml G418 sulfate, and 500 μg/ml Hygromycin B. The rat M1 Y381A orthosteric mutant receptor cDNA was generated using the Quik-Change site-directed mutagenesis kit (Stratagene) and verified by sequencing. CHO-K1 cells were stably transfected with this cDNA using Lipofectamine2000 and screened for expression based on calcium mobilization in response to the allosteric M1 agonist N-desmethylclozapine.
Calcium mobilization assays. For measurement of agonist-evoked increases in intracellular calcium, CHO-K1 cells stably expressing muscarinic receptors were plated in 100 μl of growth medium at 5×10^4 (rM1, hM3, and hM5) or 6×10^4 cells per well (rM1 Y381A, hM2, and rM4) in Costar 96-well black-walled, tissue culture (TC)-treated, clear-bottom plates (Fisher). Cells were incubated overnight at 37° C. and 5% CO2. The next day, medium was removed from the cells, and they were incubated with 50 μl of 2 μM Fluo-4 AM diluted in assay buffer [HBSS (Invitrogen) supplemented with 20 mM HEPES and 2.5 mM probenecid, pH 7.4] for 1 h at 37° C. Dye was removed and replaced with 45 μl of assay buffer. Agonists were diluted into assay buffer at a 2× concentration and applied to cells using the automated system at 19 s into the 130 s protocol. Calcium flux was measured over time as an increase in fluorescence (fold over basal) using the Flexstation plate reader (Molecular Devices).
(Calcium flux is commonly read through the fluorescence of an indicator in the cells.)

Structures are written as SMILES. Like-named read-outs stand apart in the source and are kept apart here. Bounds are passed on as bounds.

Broadly, the EC50 is the concentration needed to bring the measured effect to its halfway point.

With `CCOC(=O)N1CCC(N2CCC[C@H](NC(=O)c3ccc(OC)cc3)C2)CC1` [(S)-ethyl 3-(4-methoxybenzamido)-1,4′-bipiperidine-1′-carboxylate], where the note is “Table 2, S-enantiomers”, the EC50 is > 10 µM.
`CCOC(=O)N1CCC(N2CCC[C@@H](NC(=O)C3CCCC3)C2)CC1` [(R)-ethyl 3-(cyclopentanecarboxamido)-1,4′-bipiperidine-1′-carboxylate]: the Emax (RM1, Table 1, R-enantiomers, read-out: Efficacy (% Max ACh)) came out at 35%. Where the note is “Table 1, R-enantiomers, agonist-evoked calcium flux”, the EC50 came to 5.3 µM.
For `CCOC(=O)N1CCC(N2CCC[C@H](NC(=O)c3ccc(F)c(F)c3)C2)CC1` [(S)-ethyl 3-(3,4-difluorobenzarnido)-1,4′-bipiperidine-1′-carboxylate], under “Table 2, S-enantiomers”, the EC50 is > 10 µM.
Take `CCOC(=O)N1CCC(N2CCC[C@H](NC(=O)c3ccccc3C)C2)CC1` [(S)-ethyl 3-(2-methylbenzamido)-1,4′-bipiperidine-1′-carboxylate]: for the setting “Table 2, S-enantiomers”, the concentration giving a half-maximal response (EC50) is > 10 µM.
On to `CCOC(=O)N1CCC(N2CCC[C@H](NC(=O)c3ccccc3)C2)CC1` [(S)-ethyl 3-benzamido-1,4′-bipiperidine-1′-carboxylate], for which the EC50 (Table 2, S-enantiomers) was > 10 µM.
